According to patent publication US20040072839A1, “1-Phenylalkylpiperazines” (priority 2002, published 2004):
Where two headings read alike, the source gives them in different places.

What was measured:
[1] = system: rhythmic bladder-voiding contractions in anaesthetised rats; assay: Rhythmic bladder-voiding contractions induced by bladder filling in anaesthetised rats; format: in vivo, rat; conditions: intravenous administration; for ED50: Rattus norvegicus
Procedure: Female Sprague-Dawley rats weighing 225-275 g (Crl: CD® (SD) IGS BR, Charles River Italia) were used. The animals were housed with free access to food and water and maintained on a forced 12-hour alternating light-dark cycle at 22-24° C. for at least one week, except during the experiment. The activity on rhythmic bladder voiding contractions was evaluated according to the method of Dray (Dray J., Pharmacol. Methods, 13:157, 1985), with some modifications as in Guarneri (Guarneri, Pharmacol. Res. 27:173, 1993). Briefly, rats were anaesthetised by subcutaneous injection of 1.25 g/kg (5 ml/kg) urethane, after which the urinary bladder was catheterised via the urethra using PE 50 polyethylene tubing filled with physiological saline. The catheter was tied in place with a ligature around the external urethral orifice and was connected to conventional pressure transducers (Statham P23 ID/P23 XL). […] The bladder was then filled via the recording catheter by incremental volumes of warm (37° C.) saline until reflex bladder-voiding contractions occurred (usually 0.8-1.5 ml). For intravenous injection of bioactive compounds, PE 50 polyethylene tubing filled with physiological saline was inserted into the jugular vein.
From the cystometrogram, the number of contractions recorded 15 minutes before (basal values) and after treatment, as well as the mean amplitude of these contractions (mean height of the peaks in mmHg), was evaluated.
Since most compounds produced an effect that was relatively rapid in onset and lead to a complete cessation of bladder contractions, bioactivity was conveniently estimated by measuring the duration of bladder quiescence (i.e., the length of the time during which no contractions occured). The number of tested animals showing a reduction in the number of contractions higher than 30% of that observed in the basal period was also recorded.
To compare the potency of the tested compounds for inhibiting the bladder voiding contractions, equieffective doses that result in the disappearance of contractions for a time of 10 minutes (ED10min) were computed by means of linear regression using the least square method. The extrapolated doses which induces a reduction in the number of contractions greater than 30% in 50% of the treated rats (ED50) was evaluated by the method of Bliss (Bliss C. I., Quart J. Pharm. Pharmacol. 11, 192-216, 1938).
Data represent the ED10min values (the extrapolated dose inducing 10 minutes of disappearance of the contractions), the ED50 (frequency) values (the extrapolated doses inducing a reduction of the number of contractions >30% in 50% of treated rats), and the ED50 (amplitude) values (the extrapolated doses inducing a 30% reduction of amplitude of the contractions in 50% of treated rats).

[2] = molecular target: T1, human 5-HT1A-serotonergic receptor (Homo sapiens, UniProt P08908); assay: Radioligand binding to recombinant 5-HT1A receptors ([3H]8-OH-DPAT, HeLa cell membranes); conditions: 1 nM [3H]8-OH-DPAT; Ki from IC50 by Cheng & Prusoff; read-out: Ki, binding affinity for 5-HT1A receptors
T1 construct: expressed in transfected cells; host or cells: HeLa (human), stably transfected; membrane preparation
T1 sequence (P08908 1-422): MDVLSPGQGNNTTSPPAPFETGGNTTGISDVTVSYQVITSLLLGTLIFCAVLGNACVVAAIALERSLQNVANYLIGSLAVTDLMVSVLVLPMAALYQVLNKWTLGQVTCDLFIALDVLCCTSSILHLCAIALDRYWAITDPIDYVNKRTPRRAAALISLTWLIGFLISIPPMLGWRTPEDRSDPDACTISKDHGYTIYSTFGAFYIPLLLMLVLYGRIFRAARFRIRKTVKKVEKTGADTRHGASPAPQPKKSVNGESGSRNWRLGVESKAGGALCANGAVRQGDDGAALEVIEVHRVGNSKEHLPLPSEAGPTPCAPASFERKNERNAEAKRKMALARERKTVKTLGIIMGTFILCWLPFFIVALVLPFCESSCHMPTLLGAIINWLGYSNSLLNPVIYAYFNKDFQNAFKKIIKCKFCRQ
Procedure: Genomic clone coding for the human 5-HT1A-serotonergic receptor was stably transfected in a human cell line (HeLa). HeLa cells were grown as monolayers in Dulbecco's modified Eagle medium (DMEM), containing 10% foetal bovine serum, gentamycin (0.1 mg/ml) and 5% carbon dioxide, at 37° C. The cells were detached from the growth flask at 95% confluence by a cell scraper and were lysed in cold 5 mM Tris and 5 mM EDTA buffer (pH 7.4). The homogenates were centrifuged at 40000×g×20 minutes and the pellets were resuspended in a small volume of cold 5 mM Tris and 5 mM EDTA buffer (pH 7.4) and immediately frozen and stored at −70° C. until use. On the day of experiment, the cell membranes were resuspended in incubation buffer: 50 mM Tris HCl (pH 7.4), 2.5 mM MgCl2, […] (Fargin et al., Nature 335, 358-360, 1988). The membranes were incubated in a final volume of 1 ml for 30 minutes at 30° C. with 1 nM [^3H]8-OH-DPAT, in the absence or presence of the test compounds. Non-specific binding was determined in the presence of 10 μM 5-HT. Incubation was stopped by addition of cold Tris-HC1 buffer and rapid filtration through a 0.2%-polyethyleneimine-pretreated Whatman-GF/B or Schleicher-&-Schuell-GF52 filter.
The affinities of the tested compounds were evaluated as inhibition of specific binding of the radioligand to 5-HT1A receptors (IC50) by using the non-linear curve-fitting program Allfit (De Lean et al., Am. J. Physiol. 235, E97-E102 (1978). The IC50 value was converted to an affinity constant (Ki) by the equation of Cheng & Prusoff (Cheng Y. C., Prusoff W. H., Biochem. Pharmacol. 22, 3099-3108 (1973)).

5-HT1A receptors = molecular target: T2, 5-HT1A receptors (Rattus norvegicus, UniProt P19327); assay: Inhibition of stereotypy (rhythmic forepaw treading) induced by 8-OH-DPAT in rats (post-synaptic antagonism); format: in vivo
T2 construct: stereotyped forepaw treading induced in rats by subcutaneous injection of 8-OH-DPAT; from tissue; host or cells: whole animal (male Sprague-Dawley rats), endogenous post-synaptic receptors
T2 sequence (P19327 1-422): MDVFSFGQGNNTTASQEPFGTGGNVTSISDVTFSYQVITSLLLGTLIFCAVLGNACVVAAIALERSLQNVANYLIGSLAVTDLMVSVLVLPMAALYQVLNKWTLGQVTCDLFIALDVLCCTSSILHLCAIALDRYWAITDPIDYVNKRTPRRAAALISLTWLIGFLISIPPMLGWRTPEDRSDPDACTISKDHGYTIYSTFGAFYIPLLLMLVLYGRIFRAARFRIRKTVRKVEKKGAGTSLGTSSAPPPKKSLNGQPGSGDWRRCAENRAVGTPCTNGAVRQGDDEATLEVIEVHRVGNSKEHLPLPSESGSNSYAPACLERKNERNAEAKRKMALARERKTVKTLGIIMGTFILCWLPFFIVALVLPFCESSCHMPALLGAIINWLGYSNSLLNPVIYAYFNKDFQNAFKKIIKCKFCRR
Procedure: The inhibitory effect of 5-HT1A-receptor antagonists on stereotyped forepaw treading induced in rats by subcutaneous injection of 8-OH-DPAT was evaluated by the method of Tricklebank (Tricklebank et al., Eur. J. Pharmacol., 117: 15, 1985) with minor modifications as described below.
Male Sprague-Dawley rats[Crl: CD® (SD) IGS BR] weighing 150-175 g from Charles River Italia were used. The animals were housed with free access to food and water and maintained on a forced 12-hour-light/12-hour-dark cycle at 22-24° C. of temperature. On the day of the experiment, the rats were placed singly in clear plastic containers, 10-15 minutes before administration of the vehicle or compounds to be tested. For evaluation of antagonistic activity after oral administration, the compounds were administered 1 and 4 hours before induction of stereotypy by 8-OH-DPAT (1 mg/kg subcutaneously). Observation sessions last 30 seconds and were begun 3 minutes after 8-OH-DPAT treatment and repeated every 3 minutes over a period of 15 minutes.
The appearance of the symptom induced by postsynaptic stimulation of 5-HT1A receptors was noted, and the intensity was scored using an intensity scale in which: 0=absent, 1=equivocal, 2=present and 3=intense. Behavioural scores for treated rats were accumulated throughout the observation time (5 observation periods) and expressed as mean values of 4 rats/dose. Change in mean values of treated animals in comparison with control (vehicle) group, expressed as per-cent inhibition, were used to quantify the antagonistic activity.

[3] = urethane-anaesthetised female rats, read-out: ED50 (frequency) (extrapolated dose inducing a reduction of the number of contractions >30% in 50% of treated rats)
[4] = urethane-anaesthetised female rats

| SMILES | ED50 [1, 3] [mg/kg] | ED10 min (extrapolated dose inducing 10 minutes of disappearance of the contractions) [1, 4] [mg/kg] | ED50 ([1]; n.a. = not active, no significant reduction of the height of the peaks, read-out: ED50 (amplitude) (extrapolated dose inducing a 30% reduction of amplitude of the contractions in 50% of treated rats)) [mg/kg] | Ki [2] [nM] | % Inhibition of forepaw treading, 1 h (5-HT1A receptors; 10 mg/kg p.o., given 1 h before 8-OH-DPAT (1 mg/kg s.c.)) [%] | % Inhibition of forepaw treading, 4 h (5-HT1A receptors; 10 mg/kg p.o., given 4 h before 8-OH-DPAT (1 mg/kg s.c.)) [%] | inhibition of stereotypy induced by 8-OH-DPAT (in words) (5-HT1A receptors; oral administration) |
| --- | --- | --- | --- | --- | --- | --- | --- |
| CN1CC[C@]23c4c5ccc(O)c4O[C@H]2[C@@H](O)C=C[C@H]3[C@H]1C5 [Morphine] | 0.03 | 0.05 | – | – | – | – | – |
| CCN(CC)CC#CCOC(=O)C(O)(c1ccccc1)C1CCCCC1 (centres unmarked) [Oxybutynin] | > 10 | 7.77 | 0.24 | – | – | – | – |
| COc1ccccc1N1CCN(CC[C@H](c2ccccc2F)[C@@H](OC(C)=O)C2CCCCC2)CC1 (racemic) [Example 45, (RS,SR) 1-[4-Acetoxy-4-cyclohexyl-3-(2-fluorophenyl)butyl]-4-(2-methoxyphenyl)piperazine] | 0.127 | 0.584 | – | 0.54 | 100 | 81 | potent and long-lasting inhibition |
